According to US12667598B2, “Lactobacillus paracasei ATG-EI strain or composition comprising same for preventing or treating respiratory disease” (priority 2021, dated 2026):

Legend:
[1] = tested on: PM10D-induced airway inflammation model; assay: FACS analysis of immune cells in bronchoalveolar lavage fluid (BALF); type: in vivo, Balb/c mice; conditions: BAL, ATG-E1 4×10^9 CFU/mouse, Dexa 3 mg/kg, orally daily for 10 days
Method: (§1) There were 8 Balb/c mice (male, 8 weeks old) per group, and all groups except a normal group were injected with a fine dust mixture using the Intra-Nazal-Trachea (INT) injection method described in literatures. The fine dust mixture contained diesel exhaust particles (DEP) (PM10 (Sigma)) and 1% (final concentration) of alum. The fine dust mixture was directly injected into the airways and noses of the experimental animals on days 4, 7, and 10 of the experiment. (Lim et al., Free Radic Biol Med. 25 (6), 635-644 (1998), Shin et al., Korean J. Mediclinal Crop Sci 27 (3), 218-231 (2019)). […] An autopsy was performed on the 11th day after the start of the experiment, and bronchoalveloar lavage fluid (BALF) and lung tissue were collected.
Immune cell profiles (lymphocytes, neutrophils, macrophages, T cell subtypes, Gr-1^+CD11b^+, etc.) were measured by fluorescence-activated cell sorting (FACS) analysis of bronchoalveolar lavage fluid isolated from each individual after the end of the experiment in Example 3-1.

[2] = tested on: PM10D-induced airway inflammation model; assay: FACS analysis of immune cells in cells isolated from lung tissue; type: in vivo, Balb/c mice; conditions: ATG-E1 4×10^9 CFU/mouse, Dexa 3 mg/kg, orally daily for 10 days
Method: as §1
Immune cell profiles (lymphocytes, neutrophils, macrophages, T cell subtypes, Gr-1^+CD11b^+, etc.) were measured by fluorescence-activated cell sorting (FACS) analysis of […] lung tissue of each individual after the end of the experiment in Example 3-1.

In the case of C[C@@H]1C[C@H]2[C@@H]3CCC4=CC(=O)C=C[C@]4(C)[C@@]3(F)[C@@H](O)C[C@]2(C)[C@@]1(O)C(=O)CO [Dexa, dexamethasone], the “CD4^+ (Absolute No.)” value ([1]; NC 0.07, CTL 5.26) is reported as 3.43 ± 0.58 ×10^7 cells, the “Lymphocytes (Absolute No.)” value ([1]; NC 0.08, CTL 0.82) is reported as 0.96 ± 0.53 ×10^7 cells and the “CD4^+CD69^+ (Absolute No.)” value ([1]; NC 0.08, CTL 1.73) is reported as 1.40 ± 0.19 ×10^7 cells. For the same compound, the “CD8^+ (Absolute No.)” value ([1]; NC 0.14, CTL 3.72) was 2.80 ± 0.71 ×10^7 cells, the “Gr-1^+CD11b^+ (Absolute No.)” value ([1]; NC 0.34, CTL 1.62) was 1.38 ± 0.12 ×10^7 cells and the “CD62L^−CD44^+high (Absolute No.)” value ([1]; NC 0.99, CTL 6.40) was 5.95 ± 0.85 ×10^7 cells. For the same compound, the “Macrophage (Absolute No.)” value ([1]; NC 1.18, CTL 1.82) was 2.29 ± 0.28 ×10^7 cells, the “Neutrophils (Absolute No.)” value ([1]; NC 3.59, CTL 15.09) was 15.01 ± 2.14 ×10^7 cells and the “Gr-1^+CD11b^+ (Absolute No.)” value ([2]; NC 0.17, CTL 1.07) was 0.60 ± 0.08 ×10^7cells. For the same compound, the “CD4^+CD69^+ (Absolute No.)” value ([2]; NC 0.20, CTL 3.01) was 0.29 ± 0.07 ×10^7 cells, the “CD21/35 + B220^+ (Absolute No.)” value ([2]; NC 0.27, CTL 3.40) was 1.35 ± 0.32 ×10^7 cells and the “CD62L^−CD44^+high (Absolute No.)” value ([2]; NC 0.35, CTL 2.53) was 1.27 ± 0.15 ×10^7 cells. The “CD8^+ (Absolute No.)” value ([2]; NC 1.11, CTL 3.46) was 1.92 ± 0.18 ×10^7 cells, the “Eosinophils (Absolute No.)” value ([2]; NC 1.56, CTL 6.87) was 3.41 ± 1.06 ×10^7 cells and the “CD4^+ (Absolute No.)” value ([2]; NC 1.97, CTL 6.13) was 3.32 ± 0.42 ×10^7cells. The “Lymphocytes (Absolute No.)” value ([2]; NC 2.60, CTL 3.17) was 9.34 ± 6.56 ×10^7 cells and the “Neutrophils (Absolute No.)” value ([2]; NC 3.03, CTL 12.04) was 3.41 ± 0.83 ×10^7 cells.
